The IC50 is the concentration at which inhibition is half-maximal. Usually Ki stands for a measure of affinity in units of concentration, obtained from inhibition or displacement.

Experiment [1] concerns PMII. The settings on record: cited from earlier work.
The target of experiment [2] is plasmepsin II (PMII) (Plasmodium falciparum, UniProt P46925). The experiment in a line: Inhibition of PMII hydrolysis of Hb-based fluorogenic peptide substrate. Type of experiment: biochemical, P. falciparum.
The target in experiment [3] is plasmepsin X (PMX) (Plasmodium falciparum, UniProt Q8IAS0). The experiment in a line: Inhibition of PMX hydrolysis of Rh2N fluorogenic peptide substrate. Particulars: Ki against PMX, mature PMX, pH 5.5, 1 μM Rh2N substrate; Ki by Cheng-Prusoff. It is filed as biochemical, P. falciparum.

Square brackets hold non-standard residues; d marks the D form. Peptide text beside a SMILES is read from it. * marks the point of attachment. Sta = CC(C)C[C@H](N)[C@@H](O)CC(=O)O; Isovaleryl = CC(C)CC(=O)*

Sequence of plasmepsin II (PMII) (P46925 125-453): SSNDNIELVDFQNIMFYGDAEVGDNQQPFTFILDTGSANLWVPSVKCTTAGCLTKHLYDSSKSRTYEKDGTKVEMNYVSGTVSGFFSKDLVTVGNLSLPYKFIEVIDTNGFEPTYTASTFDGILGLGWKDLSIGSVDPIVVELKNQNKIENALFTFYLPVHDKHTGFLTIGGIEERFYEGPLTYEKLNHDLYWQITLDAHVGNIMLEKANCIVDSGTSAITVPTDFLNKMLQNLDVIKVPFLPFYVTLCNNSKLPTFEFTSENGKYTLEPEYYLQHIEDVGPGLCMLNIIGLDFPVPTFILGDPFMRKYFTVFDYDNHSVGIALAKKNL
Sequence of plasmepsin X (PMX) (Q8IAS0 235-573): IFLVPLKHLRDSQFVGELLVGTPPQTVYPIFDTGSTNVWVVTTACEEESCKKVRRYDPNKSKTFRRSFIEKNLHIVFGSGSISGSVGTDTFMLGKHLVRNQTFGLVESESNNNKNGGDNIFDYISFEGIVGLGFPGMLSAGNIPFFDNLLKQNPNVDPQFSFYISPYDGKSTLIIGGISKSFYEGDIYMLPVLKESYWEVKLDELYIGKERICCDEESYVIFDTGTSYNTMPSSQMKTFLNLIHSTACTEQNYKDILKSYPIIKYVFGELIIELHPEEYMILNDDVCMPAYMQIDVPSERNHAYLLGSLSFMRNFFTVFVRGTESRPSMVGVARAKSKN

`CCCCCc1ccc(C(=O)N(Cc2ccc(-c3ccc(C(=O)N4CCCCC4)cc3)cc2)C2CCN(Cc3ccccn3)CC2)nc1` [2IGX]: the concentration for half-maximal inhibition (IC50) in experiment [1] (achiral inhibitors, ref Boss et al., 2006, Prade et al., 2005) was 54 nM.
Consider `CC(C)(C)NC(=O)[C@@H]1CN(Cc2cccnc2)CCN1C[C@@H](O)C[C@@H](Cc1ccccc1)C(=O)N[C@H]1c2ccccc2C[C@H]1O` [IDV, Indinavir], for which, in experiment [2], the Ki worked out at 2400 nM.
On to `Cc1cccc(C)c1OCC(=O)N[C@@H](Cc1ccccc1)[C@@H](O)C[C@H](Cc1ccccc1)NC(=O)[C@H](C(C)C)N1CCCNC1=O` [LPV, Lopinavir], for which the inhibitory constant (Ki) in experiment [3] worked out at 14000 nM; in experiment [2], 700 nM.
The like results for `Cc1c(O)cccc1C(=O)N[C@@H](CSc1ccccc1)[C@H](O)CN1C[C@H]2CCCC[C@H]2C[C@H]1C(=O)NC(C)(C)C` [NFV, Nelfinavir] were, in that order, 60000 nM and 1400 nM.
On the same counts, the results for `CC(C)(C)NC(=O)[C@@H]1C[C@@H]2CCCC[C@@H]2CN1C[C@@H](O)[C@H](Cc1ccccc1)NC(=O)[C@H](CC(N)=O)NC(=O)c1ccc2ccccc2n1` [SQV, Saquinavir] are 44000 nM and 1000 nM.
For the compound `CC(C)CC(=O)N[C@H](C(=O)N[C@H](C(=O)N[C@@H](CC(C)C)[C@@H](O)CC(=O)N[C@@H](C)C(=O)N[C@@H](CC(C)C)[C@@H](O)CC(=O)O)C(C)C)C(C)C` [pepstatin A] (Isovaleryl-VV[Sta]A[Sta]-OH), the inhibition constant (Ki) in experiment [1] (PMII complex PDB ID 1XDH, ref Silva et al., 1996) was 0.006 nM.

The record behind these values is publication PMC10830516 (Current Research in Structural Biology, 2024).
